Data taken from patent publication EP0323865A1, “Novel immunosuppressant agent” (Merck & Co., Inc., priority 1988, dated 1989).

Tests used:
[1] = system: mouse T lymphocytes; test: T-cell proliferation assay (ionomycin plus PMA induced T-cell stimulation, tritiated thymidine uptake); assay type: cell-based, C57Bl/6 mice; details: result in words
Description: The principle of this assay is to measure the proliferation of mouse T lymphocytes stimulated with the combination of ionomycin plus PMA. A positive sample in this assay will inhibit T-cell proliferation, as indicated by reduced tritiated thymidine uptake.
An equal volume of methanol was added to a 1 ml sample of each of the above broths producing a 1:2 whole broth equivalent (WBE). The samples were centrifuged at 3,000 rpm for 5 minutes and the resulting supernatants were used as starting materials for the T-cell proliferation assay. […]
Purified T lymphocytes were resuspended at 10⁶ cells/ml in complete culture medium composed of RPMI 1640 medium with 10% heat-inactivated fetal calf serum, […], 1 mM sodium pyruvate, 2 x 10⁻⁵ M 2-mercaptoethanol and 50 µg/ml gentamycin. […] The proliferation of T lymphocytes was assessed by measurement of tritiated thymidine incorporation. […] Radioactivity of filter discs corresponding to individual wells was measured by standard liquid scintillation counting methods (Betacounter). Mean counts per minute of replicate wells were calculated and the results expressed as percent inhibition of tritiated thymidine uptake (proliferation) as follows: [formula]

[2] = Physical characteristics: solubility; assay type: physicochemical; details: methanol
Description: White amorphous powder • 2. […] Molecular weight determined by mass spectroscopy of 791.4784, consistent with an empirical formula of C₄₃H₆₉NO₁₂

| Solubility [2] | SMILES | immunosuppressive activity ([1]; for ascomycin no test is named) | inhibition of T-cell activation [1] |
| --- | --- | --- | --- |
|  | CC[C@@H]1/C=C(\C)C[C@H](C)C[C@H](OC)[C@H]2O[C@@](O)(C(=O)C(=O)N3CCCC[C@H]3C(=O)O[C@H](/C(C)=C/[C@@H]3CC[C@@H](O)[C@H](OC)C3)[C@H](C)[C@@H](O)CC1=O)[C@H](C)C[C@@H]2OC [ascomycin, reference compound] | exhibits immunosuppressive activity |  |
| Solubility in methanol | CC[C@@H]1/C=C(\C)C[C@H](C)C[C@H](OC)[C@H]2O[C@@](O)(C(=O)C(=O)N3CCCC[C@H]3C(=O)O[C@H](/C(C)=C/[C@@H]3CC[C@@H](O)[C@H](OC)C3)[C@H](C)[C@@H](O)CC1=O)[C@H](C)C[C@@H]2OC [immunomycin] |  | positive inhibition of T-cell activation |
